From ChEMBL document CHEMBL3991942, “Low molecular weight MYC-MAX inhibitors” (2011)
The source made the active and inactive calls. No cut-off for these calls is given here.

Legend:
[1] = target: T1, c-Myc/c-Max (Homo sapiens) (UniProt P01106+P61244); test: Inhibition of recombinant human His6 tagged c-Myc bHLH-LZ domain (353 to 439 residues) with GGCD extension at C-terminus/recombinant human full length His6 tagged Max (151 residues) expressed in Escherichia coli assessed as reduction of heterodimer binding to HEX labeled E-box-containing DNA after 90 mins by electrophoretic mobility shift assay
[2] = test system: HL-60; test: Effect on absolute levels of Max in human HL60 nuclear extracts at 100 to 200 uM after 30 mins by co-immunoprecipitation assay; conditions: hl-60, 0.5 h
[3] = test system: HL-60; test: Effect on absolute levels of c-Myc in human HL60 nuclear extracts at 100 to 200 uM after 30 mins by co-immunoprecipitation assay; conditions: hl-60, 0.5 h
[4] = target: T1, c-Myc/c-Max (Homo sapiens); test: Inhibition of c-Myc/Max interaction in human HL60 nuclear extracts at 100 to 200 uM after 30 mins by co-immunoprecipitation assay; assay type: protein assay
[5] = target: Protein max (Homo sapiens) (UniProt P61244); test: Binding affinity to recombinant human full length His6 tagged Max (151 residues) expressed in Escherichia coli M15 (pRep4) at 25 uM by fluorescence polarization assay
[6] = target: Myc proto-oncogene protein (Homo sapiens) (UniProt P01106); test: Binding affinity to recombinant human His6 tagged c-Myc bHLH-LZ domain (353 to 439 residues) with GGCD extension at C-terminus expressed in Escherichia coli BL21 DE3 (pLysS) at 25 uM by fluorescence polarization assay
[7] = test system: H016.4C; test: Cytotoxicity against rat H016.4C cells assessed as cell growth inhibition at 6 to 50 uM after 3 to 9 days by trypan blue exclusion assay; assay type: functional, cell-based
[8] = Cytotoxicity against rat KO-HMG cells assessed as cell growth inhibition at 6 to 50 uM after 3 to 4 days by trypan blue exclusion assay; assay type: cell-based
[9] = target: Myc proto-oncogene protein (Rattus norvegicus) (UniProt P09416); test: Inhibition of c-Myc in rat TGR1 cells assessed as cell growth inhibition at 6 to 50 uM after 3 to 4 days by trypan blue exclusion assay; assay type: cell-based
[10] = target: Myc proto-oncogene protein (Homo sapiens) (UniProt P01106); test: Binding affinity to recombinant human His6 tagged c-Myc bHLH-LZ domain (353 to 439 residues) with GGCD extension at C-terminus expressed in Escherichia coli BL21 DE3 (pLysS) by fluorescence polarization assay

| SMILES | inhibition [1] | inhibition [4] | Activity [5] | Activity [6] | inhibition [9] | K [10] [µM] | Activity [2] | Activity [3] | growth inhibition (GI) [7] | Activity [8] |
| --- | --- | --- | --- | --- | --- | --- | --- | --- | --- | --- |
| O=C1NC(=S)S/C1=C\C1CCCCC1 | Dose-dependent effect | Active | – | – | – | – | Non-Toxic | Non-Toxic | – | – |
| CCN(CC)c1ccc(/C=C2\SC(=S)NC2=O)cc1 | – | – | inactive | inactive | – | – | – | – | – | – |
| O=C1NC(=S)S/C1=C\c1ccc(Cl)cc1 | Dose-dependent effect | Active | inactive | Active | Active | 2.5 | Non-Toxic | Non-Toxic | inactive | Non-Toxic |
| O=C1NC(=S)S/C1=C\c1ccc(O)cc1 | – | – | inactive | inactive | – | – | – | – | – | – |
| CC(C)c1ccc(/C=C2\SC(=S)NC2=O)cc1 | Dose-dependent effect | Active | inactive | Active | – | 1 | Non-Toxic | Non-Toxic | – | – |
| O=C1NC(=S)S/C1=C\c1ccc(O)c(O)c1 | Dose-dependent effect | Active | inactive | Active | Active | 8.6 | Non-Toxic | Non-Toxic | inactive | Non-Toxic |
| O=C1/C(=C/c2ccc(Cl)cc2)SC(=S)N1CN1CCCCC1 | Dose-dependent effect | Active | inactive | Active | Active | 0.6 | Non-Toxic | Non-Toxic | inactive | Non-Toxic |
| C/C(=C1/SC(=S)NC1=O)c1ccccc1 | – | – | inactive | inactive | – | – | – | – | – | – |

Continued, in another order:

| inhibition [1] | inhibition [4] | Activity [5] | Activity [6] | inhibition [9] | K [10] [µM] | SMILES | Activity [2] | Activity [3] | growth inhibition (GI) [7] | Activity [8] |
| --- | --- | --- | --- | --- | --- | --- | --- | --- | --- | --- |
| Dose-dependent effect | Active | – | – | Active | – | C#CCN1C(=O)S/C(=C/c2ccc(CC)cc2)C1=O | Non-Toxic | Non-Toxic | inactive | Non-Toxic |
| Dose-dependent effect | Active | inactive | Active | Active | 1.8 | CC(C)c1ccc(/C=C2\SC(=S)N(CN3CCCCC3)C2=O)cc1 | Non-Toxic | Non-Toxic | inactive | Non-Toxic |
| Dose-dependent effect | Active | inactive | Active | – | 4.1 | CCc1ccc(/C=C2\SC(SC)=NC2=O)cc1 | Non-Toxic | Non-Toxic | – | – |
| Dose-dependent effect | Active | inactive | Active | Active | 3.1 | C=CCN1C(=O)/C(=C\c2ccc(CC)cc2)SC1=S | Non-Toxic | Non-Toxic | inactive | Non-Toxic |
| Dose-dependent effect | Active | inactive | Active | Active | 2.3 | CCc1ccc(/C=C2\SC(=S)NC2=O)cc1 | Non-Toxic | Non-Toxic | inactive | Non-Toxic |
| Dose-dependent effect | Active | inactive | Active | Active | 1.4 | CCc1ccc(/C=C2\SC(=S)N(CCC(C)=O)C2=O)cc1 | Non-Toxic | Non-Toxic | inactive | Non-Toxic |
| Dose-dependent effect | Active | inactive | Active | – | 5.7 | CCc1ccc(/C=C2\SC(=S)N(CN3CCCCC3)C2=O)cc1 | Non-Toxic | Non-Toxic | – | – |
